Measurements from paper PMC8035211 (Nature Communications, 2021).
Where two headings read alike, the source gives them in different places.

What was measured:
FgCelDH7C [1] = target: T1, FgCelDH7C (Fusarium graminearum, UniProt I1RWY4); type: biochemical; conditions: apparent, 0.1 mM DCIP as acceptor, 50 mM HEPES pH 7.0, 35 °C
T1 construct: gene FGRAMPH1_01T10923

MoChi7A = target: T2, MoChi7A (Pyricularia oryzae, UniProt G4NAH7); type: biochemical; conditions: apparent; O2 as acceptor; 50 mM NaOAc pH 5.2, 35 °C; read-out: Enzyme / MoChi7A / Cellotriose
T2 construct: gene MGG_09717
T2 sequence (G4NAH7 21-718 limits assumed): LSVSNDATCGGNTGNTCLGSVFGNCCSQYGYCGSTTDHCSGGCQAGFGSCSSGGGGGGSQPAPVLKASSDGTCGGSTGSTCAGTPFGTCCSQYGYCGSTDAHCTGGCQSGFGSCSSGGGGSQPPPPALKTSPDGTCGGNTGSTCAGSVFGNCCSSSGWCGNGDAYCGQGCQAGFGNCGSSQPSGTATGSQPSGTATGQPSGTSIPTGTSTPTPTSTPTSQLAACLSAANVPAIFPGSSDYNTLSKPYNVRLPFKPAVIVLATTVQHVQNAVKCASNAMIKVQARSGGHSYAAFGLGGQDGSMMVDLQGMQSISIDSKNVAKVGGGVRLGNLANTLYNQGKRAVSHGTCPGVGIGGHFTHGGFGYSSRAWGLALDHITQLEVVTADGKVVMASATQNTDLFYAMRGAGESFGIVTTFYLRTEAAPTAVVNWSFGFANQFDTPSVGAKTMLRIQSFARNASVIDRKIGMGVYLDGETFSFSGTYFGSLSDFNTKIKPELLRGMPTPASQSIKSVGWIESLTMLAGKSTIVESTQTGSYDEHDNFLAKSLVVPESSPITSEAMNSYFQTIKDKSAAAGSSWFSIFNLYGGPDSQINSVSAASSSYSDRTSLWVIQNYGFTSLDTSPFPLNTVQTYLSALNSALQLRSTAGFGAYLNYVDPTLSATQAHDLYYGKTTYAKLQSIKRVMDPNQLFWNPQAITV

FgCelDH7C [2] = target: T1, FgCelDH7C; type: binding; conditions: covalent; mono-covalent histidyl tether
FgChi7B = target: T3, FgChi7B (Fusarium graminearum, UniProt A0A098DND1); conditions: covalent; bi-covalent, 6-S-cysteinyl C162 and 8alpha-N1-histidyl H102
T3 construct: gene FGRAMPH1_01T15319
T3 sequence (A0A098DND1 21-504 limits assumed): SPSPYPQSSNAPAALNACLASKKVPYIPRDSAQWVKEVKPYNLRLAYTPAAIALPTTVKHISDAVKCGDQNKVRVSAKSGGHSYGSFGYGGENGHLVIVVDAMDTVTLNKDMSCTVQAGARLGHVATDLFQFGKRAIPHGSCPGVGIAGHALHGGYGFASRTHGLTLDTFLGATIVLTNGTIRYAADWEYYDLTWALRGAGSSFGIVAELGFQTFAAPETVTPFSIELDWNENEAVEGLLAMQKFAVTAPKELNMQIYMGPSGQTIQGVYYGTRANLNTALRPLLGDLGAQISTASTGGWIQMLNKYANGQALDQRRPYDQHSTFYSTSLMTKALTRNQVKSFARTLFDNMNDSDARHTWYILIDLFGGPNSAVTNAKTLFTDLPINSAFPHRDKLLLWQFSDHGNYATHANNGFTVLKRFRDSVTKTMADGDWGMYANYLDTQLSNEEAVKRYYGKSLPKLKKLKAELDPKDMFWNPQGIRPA

T1 sequence (I1RWY4 24-499 limits assumed): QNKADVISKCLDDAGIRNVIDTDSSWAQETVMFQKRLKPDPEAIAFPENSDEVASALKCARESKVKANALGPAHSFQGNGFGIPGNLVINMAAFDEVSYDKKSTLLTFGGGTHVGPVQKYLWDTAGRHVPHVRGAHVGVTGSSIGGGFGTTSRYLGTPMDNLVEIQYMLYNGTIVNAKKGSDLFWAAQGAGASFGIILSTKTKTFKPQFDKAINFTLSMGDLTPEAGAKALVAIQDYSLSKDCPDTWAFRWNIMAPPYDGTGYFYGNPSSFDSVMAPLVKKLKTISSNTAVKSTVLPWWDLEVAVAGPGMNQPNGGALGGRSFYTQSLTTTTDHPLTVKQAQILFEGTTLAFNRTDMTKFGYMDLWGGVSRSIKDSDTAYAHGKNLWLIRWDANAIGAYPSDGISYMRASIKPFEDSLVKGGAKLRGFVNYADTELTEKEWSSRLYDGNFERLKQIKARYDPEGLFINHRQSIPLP

OC[C@H]1O[C@@H](O[C@H]2[C@H](O)[C@@H](O)C(O)O[C@@H]2CO)[C@H](O)[C@@H](O)[C@@H]1O (some centres unmarked) [Cellobiose]
Km (FgCelDH7C [1]; read-out: Parameter / Cellobiose): 5350 ± 390 µM

CC(=O)N[C@H]1C(O)O[C@H](CO)[C@@H](O)[C@@H]1O (some centres unmarked) [GlcNAc]
Km (MoChi7A): 800 ± 50 µM

CC(=O)N[C@H]1C(O)O[C@H](CO)[C@H](O)[C@@H]1O (some centres unmarked) [GalNAc]
Km (MoChi7A): 1690 ± 120 µM

OC[C@H]1O[C@@H](O[C@H]2[C@H](O)[C@@H](O)[C@H](O[C@H]3[C@H](O)[C@@H](O)[C@H](O[C@H]4[C@H](O)[C@@H](O)C(O)O[C@@H]4CO)O[C@@H]3CO)O[C@@H]2CO)[C@H](O)[C@@H](O)[C@@H]1O (some centres unmarked) [Cellotetraose]
Km (FgCelDH7C [1]; read-out: Enzyme / PbChi7A / Cellotetraose): 6060 ± 270 µM

OC[C@H]1O[C@@H](O[C@H]2[C@H](O)[C@@H](O)[C@H](O[C@H]3[C@H](O)[C@@H](O)C(O)O[C@@H]3CO)O[C@@H]2CO)[C@H](O)[C@@H](O)[C@@H]1O (some centres unmarked) [Cellotriose]
Km (FgCelDH7C [1]; read-out: Enzyme / Cellotriose, read-out: Enzyme / MoChi7A / Cellotriose): 3940 ± 220 µM

CC(=O)N[C@H]1[C@H](O[C@H]2[C@H](O)[C@@H](NC(C)=O)C(O)O[C@@H]2CO)O[C@H](CO)[C@@H](O)[C@@H]1O (some centres unmarked) [Chitobiose]
Km (MoChi7A): 64 ± 10 µM

Cc1cc2nc3c(=O)[nH]c(=O)nc-3n(C[C@H](O)[C@H](O)[C@H](O)COP(=O)(O)OP(=O)(O)OC[C@H]3O[C@@H](n4cnc5c(N)ncnc54)[C@H](O)[C@@H]3O)c2cc1C [FAD]
crystal structure, 1.6 Å (FgCelDH7C [2]): FgCelDH7C is mono-covalently histidyl-tethered due to the substitution of the FAD-tethering cysteine to a glycine
crystal structure, 2.4 Å (FgChi7B): isoalloxazine ring of the FAD cofactor in FgChi7B is bi-covalently anchored at the C6 atom
